Data from the kinase profiling compilation of Christmann-Franck et al. (2016).
Where “and” joins values, the source holds several entries; their conditions need not be identical. Identical values can stand only once.

Columns and labels:
Assay in all cases: radiometric filter-binding kinase assay, Kinase HotSpot
Conditions in all cases: compound 0.5 µM; ATP 10 µM
BRSK1 (human) = BRSK1 (human) (UniProt Q8TDC3)
CDK1 CCNB1 (human) = CDK1 CCNB1 (human) (UniProt P06493+P14635)
EPHA1 (human) = EPHA1 (human) (UniProt P21709)
MARK4 (human) = MARK4 (human) (UniProt Q96L34)
EPHA7 (human) = EPHA7 (human) (UniProt Q15375)
PTK2B (human) = PTK2B (human) (UniProt Q14289)
DSTYK (human) = DSTYK (human) (UniProt Q6XUX3)
GRK4 (human) = GRK4 (human) (UniProt P32298)
FGFR4 (human) = FGFR4 (human) (UniProt P22455)
EPHB3 (human) = EPHB3 (human) (UniProt P54753)
PIM1 (human) = PIM1 (human) (UniProt P11309)
ITK (human) = ITK (human) (UniProt Q08881)
DCLK2 (human) = DCLK2 (human) (UniProt Q8N568)
BLK (human) = BLK (human) (UniProt P51451)
NEK6 (human) = NEK6 (human) (UniProt Q9HC98)
TAOK1 (human) = TAOK1 (human) (UniProt Q7L7X3)
AKT1 (human) = AKT1 (human) (UniProt P31749)
LYN (human) = LYN (human) (UniProt P07948)
ACVRL1 (human) = ACVRL1 (human) (UniProt P37023)
CAMKK2 (human) = CAMKK2 (human) (UniProt Q96RR4)
CAMKK1 (human) = CAMKK1 (human) (UniProt Q8N5S9)
MAP3K11 (human) = MAP3K11 (human) (UniProt Q16584)
MAP3K14 (human) = MAP3K14 (human) (UniProt Q99558)
MAPK1 (human) = MAPK1 (human) (UniProt P28482)
OXSR1 (human) = OXSR1 (human) (UniProt O95747)
PRKACA (human) = PRKACA (human) (UniProt P17612)
SIK2 (human) = SIK2 (human) (UniProt Q9H0K1)
EPHB4 (human) = EPHB4 (human) (UniProt P54760)
RAF1 (human) = RAF1 (human) (UniProt P04049)
SGK2 (human) = SGK2 (human) (UniProt Q9HBY8)
MAP2K1 (human) = MAP2K1 (human) (UniProt Q02750)
MAP3K2 (human) = MAP3K2 (human) (UniProt Q9Y2U5)
MINK1 (human) = MINK1 (human) (UniProt Q8N4C8)
CDK5 CDK5R1 p25 (human) = CDK5 CDK5R1 p25 (human) (UniProt Q00535+Q15078)
PHKG1 (human) = PHKG1 (human) (UniProt Q16816)
PIM3 (human) = PIM3 (human) (UniProt Q86V86)
PLK1 (human) = PLK1 (human) (UniProt P53350)
HIPK1 (human) = HIPK1 (human) (UniProt Q86Z02)
MAPK9 (human) = MAPK9 (human) (UniProt P45984)
MAP2K2 (human) = MAP2K2 (human) (UniProt P36507)
ALK (human) = ALK (human) (UniProt Q9UM73)
CSF1R (human) = CSF1R (human) (UniProt P07333)

ACVRL1 (human), sequence (P37023 whole entry, looked up): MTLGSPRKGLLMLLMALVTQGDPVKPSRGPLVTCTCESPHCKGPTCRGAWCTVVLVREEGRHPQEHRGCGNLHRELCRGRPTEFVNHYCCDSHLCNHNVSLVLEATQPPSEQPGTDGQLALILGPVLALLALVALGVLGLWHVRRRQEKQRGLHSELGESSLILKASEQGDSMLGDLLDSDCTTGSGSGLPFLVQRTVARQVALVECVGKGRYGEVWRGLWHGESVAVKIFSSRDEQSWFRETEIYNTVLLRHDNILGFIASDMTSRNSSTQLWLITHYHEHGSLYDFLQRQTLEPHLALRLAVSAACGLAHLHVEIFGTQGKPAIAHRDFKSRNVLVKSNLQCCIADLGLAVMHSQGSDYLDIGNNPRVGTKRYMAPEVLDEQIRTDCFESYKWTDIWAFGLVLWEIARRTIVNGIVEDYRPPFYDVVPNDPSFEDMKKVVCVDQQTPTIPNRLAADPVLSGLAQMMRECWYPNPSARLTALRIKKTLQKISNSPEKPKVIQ
GRK4 (human), sequence (P32298 whole entry, looked up): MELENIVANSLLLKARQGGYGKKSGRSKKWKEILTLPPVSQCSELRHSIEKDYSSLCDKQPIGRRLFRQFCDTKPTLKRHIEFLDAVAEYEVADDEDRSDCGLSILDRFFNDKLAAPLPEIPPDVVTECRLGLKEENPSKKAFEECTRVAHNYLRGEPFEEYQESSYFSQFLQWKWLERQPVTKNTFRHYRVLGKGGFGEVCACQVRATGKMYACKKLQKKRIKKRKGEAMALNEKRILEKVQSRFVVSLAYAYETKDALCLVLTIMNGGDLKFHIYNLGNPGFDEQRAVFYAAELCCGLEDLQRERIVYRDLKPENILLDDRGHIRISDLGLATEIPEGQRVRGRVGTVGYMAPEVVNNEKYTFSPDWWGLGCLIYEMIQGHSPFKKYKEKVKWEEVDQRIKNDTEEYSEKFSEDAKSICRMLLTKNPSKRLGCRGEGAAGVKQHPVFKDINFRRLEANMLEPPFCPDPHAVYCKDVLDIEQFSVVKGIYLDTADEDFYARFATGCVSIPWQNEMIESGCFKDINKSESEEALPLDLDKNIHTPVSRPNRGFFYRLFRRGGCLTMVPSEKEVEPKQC
PTK2B (human), sequence (Q14289 whole entry, looked up): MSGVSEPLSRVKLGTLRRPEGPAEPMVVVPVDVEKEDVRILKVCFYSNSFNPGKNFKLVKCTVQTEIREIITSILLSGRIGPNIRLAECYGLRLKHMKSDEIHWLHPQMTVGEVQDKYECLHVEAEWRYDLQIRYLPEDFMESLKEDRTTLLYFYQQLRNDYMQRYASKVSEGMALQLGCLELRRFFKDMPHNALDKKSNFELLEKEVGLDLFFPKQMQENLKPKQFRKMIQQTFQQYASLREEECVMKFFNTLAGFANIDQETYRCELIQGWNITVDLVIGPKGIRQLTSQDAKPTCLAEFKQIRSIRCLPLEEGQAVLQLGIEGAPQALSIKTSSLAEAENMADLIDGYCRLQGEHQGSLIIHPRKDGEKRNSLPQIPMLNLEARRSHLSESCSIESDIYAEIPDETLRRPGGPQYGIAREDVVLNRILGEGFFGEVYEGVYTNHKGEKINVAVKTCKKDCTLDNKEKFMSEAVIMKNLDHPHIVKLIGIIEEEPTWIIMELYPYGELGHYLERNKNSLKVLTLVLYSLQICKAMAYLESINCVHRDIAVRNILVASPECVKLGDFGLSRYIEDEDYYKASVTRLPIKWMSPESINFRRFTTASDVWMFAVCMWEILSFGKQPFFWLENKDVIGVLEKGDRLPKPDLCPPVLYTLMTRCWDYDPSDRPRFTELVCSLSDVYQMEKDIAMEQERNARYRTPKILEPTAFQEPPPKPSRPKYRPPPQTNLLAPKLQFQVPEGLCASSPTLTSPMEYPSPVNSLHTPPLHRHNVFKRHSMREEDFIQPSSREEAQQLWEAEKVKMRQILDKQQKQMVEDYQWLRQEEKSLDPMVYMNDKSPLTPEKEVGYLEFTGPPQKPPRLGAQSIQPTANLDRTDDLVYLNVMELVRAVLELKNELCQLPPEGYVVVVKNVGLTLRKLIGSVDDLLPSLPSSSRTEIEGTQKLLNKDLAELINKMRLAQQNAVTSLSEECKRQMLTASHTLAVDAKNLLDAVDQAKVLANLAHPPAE
EPHA1 (human), sequence (P21709 whole entry, looked up): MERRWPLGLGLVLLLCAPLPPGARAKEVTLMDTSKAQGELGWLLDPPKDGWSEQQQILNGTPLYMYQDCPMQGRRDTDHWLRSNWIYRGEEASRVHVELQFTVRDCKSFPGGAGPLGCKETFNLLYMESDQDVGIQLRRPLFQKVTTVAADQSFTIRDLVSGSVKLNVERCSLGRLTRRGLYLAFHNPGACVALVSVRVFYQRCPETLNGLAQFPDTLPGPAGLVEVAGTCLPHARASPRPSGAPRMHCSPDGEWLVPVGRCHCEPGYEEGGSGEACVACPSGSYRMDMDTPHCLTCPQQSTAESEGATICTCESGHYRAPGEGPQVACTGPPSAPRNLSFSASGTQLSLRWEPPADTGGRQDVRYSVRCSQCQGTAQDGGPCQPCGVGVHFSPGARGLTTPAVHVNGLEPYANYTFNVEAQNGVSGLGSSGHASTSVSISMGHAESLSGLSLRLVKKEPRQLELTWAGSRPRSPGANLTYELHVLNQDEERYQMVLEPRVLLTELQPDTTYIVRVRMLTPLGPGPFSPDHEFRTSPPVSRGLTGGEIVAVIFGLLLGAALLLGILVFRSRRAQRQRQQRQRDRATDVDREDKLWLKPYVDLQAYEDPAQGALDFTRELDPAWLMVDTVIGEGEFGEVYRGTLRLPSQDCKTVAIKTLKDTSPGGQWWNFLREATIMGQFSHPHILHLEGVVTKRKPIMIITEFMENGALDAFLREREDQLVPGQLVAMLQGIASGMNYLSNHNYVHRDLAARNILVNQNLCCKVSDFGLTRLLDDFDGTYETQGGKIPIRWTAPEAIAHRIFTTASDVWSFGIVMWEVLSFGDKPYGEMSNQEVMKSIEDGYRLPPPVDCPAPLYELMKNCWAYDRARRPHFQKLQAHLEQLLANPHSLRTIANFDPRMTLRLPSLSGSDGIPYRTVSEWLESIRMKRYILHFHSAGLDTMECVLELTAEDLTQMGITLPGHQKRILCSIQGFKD
SGK2 (human), sequence (Q9HBY8 whole entry, looked up): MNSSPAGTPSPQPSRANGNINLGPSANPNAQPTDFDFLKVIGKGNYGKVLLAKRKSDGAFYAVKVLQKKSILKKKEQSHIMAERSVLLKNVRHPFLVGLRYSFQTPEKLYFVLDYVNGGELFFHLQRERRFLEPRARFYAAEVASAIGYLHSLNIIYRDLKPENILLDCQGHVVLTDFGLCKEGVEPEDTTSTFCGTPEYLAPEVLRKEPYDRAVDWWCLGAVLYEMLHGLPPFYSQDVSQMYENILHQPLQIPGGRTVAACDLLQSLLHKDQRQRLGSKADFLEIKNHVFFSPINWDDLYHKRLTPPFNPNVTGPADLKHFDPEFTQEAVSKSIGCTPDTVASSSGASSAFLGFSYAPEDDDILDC
FGFR4 (human), sequence (P22455 whole entry, looked up): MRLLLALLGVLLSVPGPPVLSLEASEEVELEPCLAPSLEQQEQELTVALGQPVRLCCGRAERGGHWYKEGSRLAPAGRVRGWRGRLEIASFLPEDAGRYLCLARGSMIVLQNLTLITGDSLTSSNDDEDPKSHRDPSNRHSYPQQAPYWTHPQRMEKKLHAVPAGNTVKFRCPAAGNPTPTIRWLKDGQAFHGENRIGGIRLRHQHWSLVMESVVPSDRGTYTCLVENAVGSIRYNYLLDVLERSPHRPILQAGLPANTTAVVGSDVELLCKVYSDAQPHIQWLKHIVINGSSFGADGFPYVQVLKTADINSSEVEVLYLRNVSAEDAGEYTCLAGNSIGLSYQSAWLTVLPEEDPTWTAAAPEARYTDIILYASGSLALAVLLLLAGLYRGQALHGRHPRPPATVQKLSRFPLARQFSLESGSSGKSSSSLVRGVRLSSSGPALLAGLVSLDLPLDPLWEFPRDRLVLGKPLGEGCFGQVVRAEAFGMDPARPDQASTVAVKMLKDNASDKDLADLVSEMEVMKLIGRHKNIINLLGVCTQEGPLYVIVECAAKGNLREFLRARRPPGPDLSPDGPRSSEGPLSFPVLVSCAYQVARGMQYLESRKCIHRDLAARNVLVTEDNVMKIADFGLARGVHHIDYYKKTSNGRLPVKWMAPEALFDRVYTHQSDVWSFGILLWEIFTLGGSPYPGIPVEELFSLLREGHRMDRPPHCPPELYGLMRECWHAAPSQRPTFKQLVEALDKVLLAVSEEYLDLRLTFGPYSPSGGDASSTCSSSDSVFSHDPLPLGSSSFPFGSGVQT
CDK5 CDK5R1 p25 (human), sequence (Q00535 whole entry, looked up): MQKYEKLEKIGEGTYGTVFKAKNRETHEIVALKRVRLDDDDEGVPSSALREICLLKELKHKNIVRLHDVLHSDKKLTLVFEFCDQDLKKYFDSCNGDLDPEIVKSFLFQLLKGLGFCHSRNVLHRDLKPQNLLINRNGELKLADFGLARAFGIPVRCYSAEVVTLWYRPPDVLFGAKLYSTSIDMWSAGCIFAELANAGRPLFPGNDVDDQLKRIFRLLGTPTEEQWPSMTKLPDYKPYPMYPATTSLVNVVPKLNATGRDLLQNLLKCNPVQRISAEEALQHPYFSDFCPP
CDK5 CDK5R1 p25 (human), sequence (Q15078 whole entry, looked up): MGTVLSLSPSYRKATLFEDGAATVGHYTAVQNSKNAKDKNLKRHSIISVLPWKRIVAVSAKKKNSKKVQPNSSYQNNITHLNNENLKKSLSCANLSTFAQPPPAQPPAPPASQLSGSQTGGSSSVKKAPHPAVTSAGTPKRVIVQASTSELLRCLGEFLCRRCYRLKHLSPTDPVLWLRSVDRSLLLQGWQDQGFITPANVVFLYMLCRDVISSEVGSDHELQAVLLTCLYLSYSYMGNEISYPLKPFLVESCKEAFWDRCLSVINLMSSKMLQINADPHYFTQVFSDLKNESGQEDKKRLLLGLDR

`COc1cc2c(Nc3ccc(Br)cc3F)ncnc2cc1OCC1CCN(C)CC1` showed a residual activity (BRSK1 (human)) of 97.1%, a residual activity (CDK1 CCNB1 (human)) of 102% and a residual activity (EPHA1 (human)) of 31.7%. It also gave a residual activity (MARK4 (human)) of 99.4%, a residual activity (EPHA7 (human)) of 31.8% and a residual activity (PTK2B (human)) of 99.5%. The residual activity (DSTYK (human)) was 96%, the residual activity (GRK4 (human)) was 102% and the residual activity (FGFR4 (human)) was 90%. For the same molecule, the residual activity (EPHB3 (human)) was 77.4%, the residual activity (PIM1 (human)) was 95% and the residual activity (ITK (human)) was 101%. The residual activity (DCLK2 (human)) was 104%, the residual activity (BLK (human)) was 33.8% and the residual activity (NEK6 (human)) was 96.9%. The residual activity (TAOK1 (human)) was 103%, the residual activity (AKT1 (human)) was 94.7% and the residual activity (LYN (human)) was 10.8% and 16.7%. It also gave a residual activity (ACVRL1 (human)) of 104%, a residual activity (CAMKK2 (human)) of 102% and a residual activity (CAMKK1 (human)) of 90.4%. The residual activity (MAP3K11 (human)) was 100%, the residual activity (MAP3K14 (human)) was 155% and the residual activity (MAPK1 (human)) was 99.1%. For the same molecule, the residual activity (OXSR1 (human)) was 100%, the residual activity (PRKACA (human)) was 92.8% and the residual activity (SIK2 (human)) was 17.6%. For the same molecule, the residual activity (EPHB4 (human)) was 13%, the residual activity (RAF1 (human)) was 81.1% and the residual activity (SGK2 (human)) was 122%. It also gave a residual activity (MAP2K1 (human)) of 105%, a residual activity (MAP3K2 (human)) of 108% and a residual activity (MINK1 (human)) of 81.5%. It also gave a residual activity (CDK5 CDK5R1 p25 (human)) of 97.8%, a residual activity (PHKG1 (human)) of 55.5% and a residual activity (PIM3 (human)) of 96.1%. The residual activity (PLK1 (human)) was 98.5%, the residual activity (HIPK1 (human)) was 96.7% and the residual activity (MAPK9 (human)) was 96.4%.

Molecule `COc1cc2c(cc1OC)-c1[nH]nc(Nc3cccc(F)c3)c1C2` has a residual activity (BRSK1 (human)) of 89.3%, a residual activity (CDK1 CCNB1 (human)) of 101% and a residual activity (EPHA1 (human)) of 102%. The residual activity (MARK4 (human)) was 70.6%, the residual activity (EPHA7 (human)) was 98% and the residual activity (PTK2B (human)) was 98%. It also gave a residual activity (DSTYK (human)) of 93.3%, a residual activity (MAP2K2 (human)) of 99.8% and a residual activity (GRK4 (human)) of 97.1%. It also gave a residual activity (FGFR4 (human)) of 91.6%, a residual activity (EPHB3 (human)) of 97.2% and a residual activity (PIM1 (human)) of 97.3%. The residual activity (ITK (human)) was 85.5%, the residual activity (DCLK2 (human)) was 88.2% and the residual activity (BLK (human)) was 74.2%. It also gave a residual activity (NEK6 (human)) of 105%, a residual activity (TAOK1 (human)) of 76.3% and a residual activity (AKT1 (human)) of 93.3%. The residual activity (LYN (human)) was 60.2% and 77.5%, the residual activity (ACVRL1 (human)) was 102% and the residual activity (ALK (human)) was 103%. For the same molecule, the residual activity (CAMKK2 (human)) was 86.8%, the residual activity (CAMKK1 (human)) was 81.5% and the residual activity (MAP3K11 (human)) was 93.9%. The residual activity (MAP3K14 (human)) was 105%, the residual activity (MAPK1 (human)) was 85.1% and the residual activity (OXSR1 (human)) was 121%. It also gave a residual activity (PRKACA (human)) of 92.8%, a residual activity (SIK2 (human)) of 38.6% and a residual activity (EPHB4 (human)) of 95.3%. The residual activity (SGK2 (human)) was 98.6%, the residual activity (MAP2K1 (human)) was 90.1% and the residual activity (MAP3K2 (human)) was 84.5%. It also gave a residual activity (CSF1R (human)) of 20%, a residual activity (MINK1 (human)) of 83.6% and a residual activity (CDK5 CDK5R1 p25 (human)) of 89%. For the same molecule, the residual activity (PHKG1 (human)) was 89%, the residual activity (PIM3 (human)) was 95.3% and the residual activity (PLK1 (human)) was 102%. The residual activity (HIPK1 (human)) was 96.4% and the residual activity (MAPK9 (human)) was 75.9%.

`COc1cc2c(N3CCN(C(=O)Nc4ccc(OC(C)C)cc4)CC3)ncnc2cc1OCCCN1CCCCC1` gave a residual activity (BRSK1 (human)) of 103%, a residual activity (CDK1 CCNB1 (human)) of 97.1% and a residual activity (EPHA1 (human)) of 96.1%. The residual activity (MARK4 (human)) was 98.7%, the residual activity (EPHA7 (human)) was 97.5% and the residual activity (PTK2B (human)) was 99.3%. It also gave a residual activity (DSTYK (human)) of 92.7%, a residual activity (MAP2K2 (human)) of 116% and a residual activity (GRK4 (human)) of 106%. It also gave a residual activity (FGFR4 (human)) of 87.8%, a residual activity (EPHB3 (human)) of 84.2% and a residual activity (PIM1 (human)) of 97.8%. For the same molecule, the residual activity (ITK (human)) was 99%, the residual activity (DCLK2 (human)) was 103% and the residual activity (BLK (human)) was 100%. For the same molecule, the residual activity (NEK6 (human)) was 87.4%, the residual activity (TAOK1 (human)) was 103% and the residual activity (AKT1 (human)) was 102%. For the same molecule, the residual activity (LYN (human)) was 103% and 95.6%, the residual activity (ACVRL1 (human)) was 102% and the residual activity (ALK (human)) was 103%. For the same molecule, the residual activity (CAMKK2 (human)) was 101%, the residual activity (CAMKK1 (human)) was 90.3% and the residual activity (MAP3K11 (human)) was 100%. The residual activity (MAP3K14 (human)) was 98.6%, the residual activity (MAPK1 (human)) was 87% and the residual activity (OXSR1 (human)) was 95.8%. The residual activity (PRKACA (human)) was 103%, the residual activity (SIK2 (human)) was 98.9% and the residual activity (EPHB4 (human)) was 95%. The residual activity (RAF1 (human)) was 96.7%, the residual activity (SGK2 (human)) was 105% and the residual activity (MAP2K1 (human)) was 113%. It also gave a residual activity (MAP3K2 (human)) of 103%, a residual activity (MINK1 (human)) of 99% and a residual activity (CDK5 CDK5R1 p25 (human)) of 104%. For the same molecule, the residual activity (PHKG1 (human)) was 92.6%, the residual activity (PIM3 (human)) was 100% and the residual activity (PLK1 (human)) was 101%. It also gave a residual activity (HIPK1 (human)) of 98.9% and a residual activity (MAPK9 (human)) of 103%.
